# Assay results as given in patent US10561703B2, “Method of modulating sex hormone levels using a sex hormone secretion modulator” (GEMVAX & KAEL CO., LTD., priority 2013, dated 2020).
# System: LH
# Test: LH level in blood (serum CLIA) after repeated sc PEP-1
# Assay type: in vivo, SD rats
# Protocol: PEP-1 (peptide of SEQ ID NO: 1), lyophilized white powder, obtained according to the method mentioned in example 1 was dissolved in 0.9% of saline, considering the correction factor of PEP-1 (purity: 94.13%, content: 92.36%, correction factor: 1.15). 50 mg/mL stock solution was further diluted into 20 mg/mL, 2 mg/mL, and 1 mg/mL with 0.9% saline, and stored at 4° C. for a week until the use.
# The purpose of this example is to confirm the change of sexual hormones in blood from SD rats with 7 days repeated daily administration of SEQ ID NO: 1 peptide, PEP-1. This experiment followed the Ethics Regulation of Animal Test by KAMSI Inc. (Korea Animal Medical Science Institute). In addition, this experiment, Non-GLP experiment, referred to the MFDS (Ministry of Food and Drug Safety) notification; Agent 2013-40 (5th April 2013), Principles of Good Laboratory Practice (1997).
# SPF Rats (Crlj:CD(SD)) were purchased from ORIENTBio Inc. (Mokdong-ri, Buk-myeon, Gapyeong-gun, Gyeonggi-do, Republic of Korea). 75 male (6.5 weeks old and 190˜210 g) and 75 female (6.5 weeks old and 160˜180 g) rats were monitored for 4 days, and 64 of male and female rats (each) were selected for the experiment. Raising condition is as follows; 23±3° C. of temperature, […] of relative humidity, 10˜20 times/hr of number of air changes, 12 hours (8 a.m.˜8 p.m.) of lighting with 150˜300 Lux of intensity.
# 64 male and female […] (mentioned above) were divided into 8 groups. Administration regimen, for example, drugs, routes, dosages, and volumes were as follows:
# The detailed administration regimen is as follows; once a day, twice a day and twice a week in each experimental group. Injection initiated at 10 a.m. every day, and each rat was injected at one minute intervals. Rats in Group 9, 10, 13 and 14 were injected twice a week. Administration of high dose test agent preceded that of low dose. The volume of injection was calculated using recently measured weight of rats, and it was 5 mL/kg. Subcutaneous injection was performed as follows; assistant tilted the back of rat upward, and experimenter sterilized the back of rat with 70% alcohol, followed by subcutaneous injection of test agent with 26 G syringe.
# 1.4 mL of blood sample (0.7 mL of serum) was collected after measurement of weight (Day 0). Next day (1 Day), 1.4 mL of blood sample (0.7 mL of serum) was collected twice after injection of test agent (4 hrs and 8 hrs after administration of test agent). For next 6 days (Day 2˜Day 7), 1.4 mL of blood was extracted once everyday (4 hours after injection of test agent). Dose and volume of test agent of each group followed the Table 3, and injection time zone was same every day. Blood was extracted from the jugular vein, and left at room temperature for 30 minutes. Serum was separated using centrifugation (10,000 rpm for 5 minutes), and stored at −70±5° C. in Deep freezer until the use. Blood extraction from each subject was done in the same time zone every day.
# A CLIA (Chemi-Luminescence Immune Assay) Kit was used to analyze Testosterone, Estradiol E2, FSH (Follicle stimulating hormone), and LH (Luteinizing hormone). Analysis was completed within 48 hrs after blood extraction (Laboratory Medicine Department, Chung-Ang University Hospital), and detailed method is as follows; One-way ANOVA was used to verify the comparison between the vehicle and PEP-1, and between different doses of PEP-1. For further analysis, Duncan test was used as parametric test and Dunnett's test as non-parametric test. p<0.05 represents the statistical significance, and all statistical analysis was carried out with SPSS 10.1.
# LH was analyzed using the samples prepared from example 2. 50 μL of serum was used for analysis. Fundamentals of analysis is Two-site sandwich immunoassay based on direct chemi-luminescent. As mentioned in example 2, CLIA (Chemi-luminescence immune assay) Kit was used, following the manufacture's protocol.
sequence,measurement,setting,value
"EARPALLTSRLRFIPK (listed as Homo sapiens) [PEP-1, hormone secretion modulator / GnRH analog]",LH level in blood,"G3 Male 5 mg/kg sc 1/day x7, 7 days",0.13 mIU/mL
same,LH level in blood,"G4 Female 5 mg/kg sc 1/day x7, 4 hr",0.16 mIU/mL
same,LH level in blood,"G4 Female 5 mg/kg sc 1/day x7, 8 hr",0.24 mIU/mL
same,LH level in blood,"G4 Female 5 mg/kg sc 1/day x7, 2 days",0.19 mIU/mL
same,LH level in blood,"G4 Female 5 mg/kg sc 1/day x7, 3 days",0.13 mIU/mL
same,LH level in blood,"G4 Female 5 mg/kg sc 1/day x7, 4 days",0.13 mIU/mL
same,LH level in blood,"G4 Female 5 mg/kg sc 1/day x7, 5 days",0.14 mIU/mL
same,LH level in blood,"G4 Female 5 mg/kg sc 1/day x7, 6 days",0.14 mIU/mL
same,LH level in blood,"G4 Female 5 mg/kg sc 1/day x7, 7 days",0.16 mIU/mL
same,LH level in blood,"G4 Female 5 mg/kg sc 1/day x7, pre",0.12 mIU/mL
same,LH level in blood,"G6 Female 10 mg/kg sc 1/day x7, 4 hr",0.41 mIU/mL
same,LH level in blood,"G6 Female 10 mg/kg sc 1/day x7, 8 hr",0.26 mIU/mL
same,LH level in blood,"G6 Female 10 mg/kg sc 1/day x7, 2 days",0.22 mIU/mL
same,LH level in blood,"G6 Female 10 mg/kg sc 1/day x7, 3 days",0.19 mIU/mL
same,LH level in blood,"G6 Female 10 mg/kg sc 1/day x7, 4 days",0.15 mIU/mL
same,LH level in blood,"G6 Female 10 mg/kg sc 1/day x7, 5 days",0.15 mIU/mL
same,LH level in blood,"G6 Female 10 mg/kg sc 1/day x7, 6 days",0.17 mIU/mL
same,LH level in blood,"G6 Female 10 mg/kg sc 1/day x7, 7 days",0.16 mIU/mL
same,LH level in blood,"G6 Female 10 mg/kg sc 1/day x7, pre",0.12 mIU/mL
same,LH level in blood,"G8 Female 10 mg/kg sc 2/day x4, 4 hr",0.22 mIU/mL
same,LH level in blood,"G8 Female 10 mg/kg sc 2/day x4, 8 hr",0.15 mIU/mL
same,LH level in blood,"G8 Female 10 mg/kg sc 2/day x4, 2 days",0.17 mIU/mL
same,LH level in blood,"G8 Female 10 mg/kg sc 2/day x4, 3 days",0.28 mIU/mL
same,LH level in blood,"G8 Female 10 mg/kg sc 2/day x4, 4 days",0.13 mIU/mL
same,LH level in blood,"G8 Female 10 mg/kg sc 2/day x4, 5 days",0.23 mIU/mL
same,LH level in blood,"G8 Female 10 mg/kg sc 2/day x4, 6 days",0.15 mIU/mL
same,LH level in blood,"G8 Female 10 mg/kg sc 2/day x4, 7 days",0.28 mIU/mL
same,LH level in blood,"G8 Female 10 mg/kg sc 2/day x4, pre",0.13 mIU/mL
same,LH level in blood,"G9 Male 10 mg/kg sc 2/week x2 (days 1,7), 4 hr",0.62 mIU/mL
same,LH level in blood,"G9 Male 10 mg/kg sc 2/week x2 (days 1,7), 8 hr",0.14 mIU/mL
same,LH level in blood,"G9 Male 10 mg/kg sc 2/week x2 (days 1,7), 2 days",0.12 mIU/mL
same,LH level in blood,"G9 Male 10 mg/kg sc 2/week x2 (days 1,7), 3 days",0.12 mIU/mL
same,LH level in blood,"G9 Male 10 mg/kg sc 2/week x2 (days 1,7), 4 days",0.13 mIU/mL
same,LH level in blood,"G9 Male 10 mg/kg sc 2/week x2 (days 1,7), 5 days",0.14 mIU/mL
same,LH level in blood,"G9 Male 10 mg/kg sc 2/week x2 (days 1,7), 6 days",0.11 mIU/mL
same,LH level in blood,"G9 Male 10 mg/kg sc 2/week x2 (days 1,7), 7 days",0.67 mIU/mL
same,LH level in blood,"G9 Male 10 mg/kg sc 2/week x2 (days 1,7), pre",0.12 mIU/mL
same,LH level in blood,"G10 Female 10 mg/kg sc 2/week x2 (days 1,7), 4 hr",0.25 mIU/mL
same,LH level in blood,"G10 Female 10 mg/kg sc 2/week x2 (days 1,7), 8 hr",0.23 mIU/mL
same,LH level in blood,"G10 Female 10 mg/kg sc 2/week x2 (days 1,7), 2 days",0.17 mIU/mL
same,LH level in blood,"G10 Female 10 mg/kg sc 2/week x2 (days 1,7), 3 days",0.14 mIU/mL
same,LH level in blood,"G10 Female 10 mg/kg sc 2/week x2 (days 1,7), 4 days",0.13 mIU/mL
same,LH level in blood,"G10 Female 10 mg/kg sc 2/week x2 (days 1,7), 5 days",0.15 mIU/mL
same,LH level in blood,"G10 Female 10 mg/kg sc 2/week x2 (days 1,7), 6 days",0.12 mIU/mL
same,LH level in blood,"G10 Female 10 mg/kg sc 2/week x2 (days 1,7), 7 days",0.26 mIU/mL
same,LH level in blood,"G10 Female 10 mg/kg sc 2/week x2 (days 1,7), pre",0.25 mIU/mL
same,LH level in blood,"G11 Male 100 mg/kg sc 1/day x7, 4 hr",1.16 mIU/mL
same,LH level in blood,"G11 Male 100 mg/kg sc 1/day x7, 8 hr",0.18 mIU/mL
same,LH level in blood,"G11 Male 100 mg/kg sc 1/day x7, 2 days",0.28 mIU/mL
same,LH level in blood,"G11 Male 100 mg/kg sc 1/day x7, 3 days",0.23 mIU/mL
same,LH level in blood,"G11 Male 100 mg/kg sc 1/day x7, 4 days",0.18 mIU/mL
